Legend:
Format in all cases: cell-based
[1] = system: non-small cell lung cancer cells (H1975); assay: MTT tumor cell proliferation inhibition test, H1975; details: Homo sapiens, NCI-H1975, 48 hours treatment, read-out: Half Inhibitory Concentration IC50, H1975
Excerpt: (§1) The compounds of the present invention were subjected to tumor cell proliferation inhibition test, and conventional MTT method was used. Cell lines used: non-small cell lung cancer cells (H1975), human hepatoma cells (HepG2), human glioma cells (U251), human gastric adenocarcinoma cells (AGS), human breast cancer cells (1590). The culture medium was DMEM+15% NBS+double antibody. […] Antitumor cytarabine (Ara-C) was used as control solution, prepared under the same condition. Cell culture: adherent growth Tumor cells were cultured in 1640 medium containing 10% inactivated neonatal bovine serum and penicillin, streptomycin (1 million U/L), placed in carbon dioxide incubator at 37° C., 5% CO2, and saturated humidity. Cells were treated serially passaged 2-3 times. The first culture was washed with PBS 2 times, and digested with trypsin. Fresh culture medium was added evenly, cells were adjusted to a appropriate concentration and transferred into a new culture flask. Cell in an exponential phase were chosen for the tests. MTT Assay for Cell Viability and IC50 Determination: Experimental Principle: Living cells mitochondria in the dehydrogenase can reduce yellow MTT to water-insoluble blue-violet product MT (MTT formazan), deposited in the cells. The amount of production is proportional to the number of living cells. […] DMSO can dissolve blue violet crystals, and the color depth is proportional to the amount contained, so the absorbance measured by the microplate reader can reflect the cell viability. Methods: The exponential phase cells were digested and counted and seeded in 96-well plates at a density of 2×10^4/mL at 100 μl per well. […] After another 4 hours, the supernatant was discarded, and 100 μl of DMSO was added to each well. After mixing, the absorbance was measured at 570 nm using a microplate reader. An IC50 calculation software was used to determine the half inhibitory concentration (IC50).

[2] = system: human hepatoma cells (HepG2); assay: MTT tumor cell proliferation inhibition test, HepG2; details: 48 hours treatment, read-out: Half Inhibitory Concentration IC50, HepG2
Excerpt: as §1

[3] = system: human glioma cells (U251); assay: MTT tumor cell proliferation inhibition test, U251; details: U-251, 48 hours treatment, read-out: Half Inhibitory Concentration IC50, U251
Excerpt: as §1

[4] = system: human gastric adenocarcinoma cells (AGS); assay: MTT tumor cell proliferation inhibition test, AGS; details: 48 hours treatment, read-out: Half Inhibitory Concentration IC50, AGS
Excerpt: as §1

[5] = system: human breast cancer cells (1590); assay: MTT tumor cell proliferation inhibition test, 1590; details: 48 hours treatment, 1590 cells, read-out: Half Inhibitory Concentration IC50, 1590
Excerpt: as §1

different cell lines = assay: MTT tumor cell proliferation inhibition test, overall verdict; details: summary in words of Table 1, different cell lines
Excerpt: as §1

SMILES	IC50 [1] [µM]	IC50 [2] [µM]	IC50 [3] [µM]	IC50 [4] [µM]	IC50 [5] [µM]	in vitro antitumor activities (different cell lines)
O=C(/C=C\c1ccccc1)OC1CCN2[C@@H]3C[C@@H](C[C@@H]2C1)N1CCCC[C@@H]1C3 (stereo partly drawn) [Compound A, (Z)-(6S,7aR,13S,14aR)-tetradecahydro-6,13-methanodipyrido[1,2-a:1′,2′-e][1,5]diazocin-2-yl 3-phenylacrylate]	16.9 ± 1.36	36.6 ± 3.01	> 100	20.3 ± 1.12	32 ± 1.69	good in vitro antitumor activities
COc1cc(/C=C\C(=O)OC2CCN3[C@@H]4C[C@@H](C[C@@H]3C2)N2CCCC[C@@H]2C4)cc(OC)c1O (stereo partly drawn) [Compound G, (Z)-(6S,7aR,13S,14aR)-tetradecahydro-6,13-methanodipyrido[1,2-a:1′,2′-e][1,5]diazocin-2-yl 3-(4-hydroxy-3,5-dimethoxyphenyl)acrylate]	55.48 ± 0.48	> 100	37 ± 1.24	59.4 ± 0.97	> 100	good in vitro antitumor activities
O=C(/C=C\c1cccc(O)c1)OC1CCN2[C@@H]3C[C@@H](C[C@@H]2C1)N1CCCC[C@@H]1C3 (stereo partly drawn) [Compound C, (Z)-(6S,7aR,13S,14aR)-tetradecahydro-6,13-methanodipyrido[1,2-a:1′,2′-e][1,5]diazocin-2-yl 3-(3-hydroxyphenyl)acrylate]	23.7 ± 2.37	73.55 ± 0.49	5.49 ± 1.98	26.3 ± 1.48	43.2 ± 0.95	good in vitro antitumor activities
O=C(/C=C\c1ccc(O)cc1)OC1CCN2[C@@H]3C[C@@H](C[C@@H]2C1)N1CCCC[C@@H]1C3 (stereo partly drawn) [Compound B, (Z)-(6S,7aR,13S,14aR)-tetradecahydro-6,13-methanodipyrido[1,2-a:1′,2′-e][1,5]diazocin-2-yl 3-(4-hydroxyphenyl)acrylate]	> 100	53.69 ± 0.34	74.98 ± 0.49	> 100	> 100	
O=C(/C=C\c1ccc(O)c(O)c1)OC1CCN2[C@@H]3C[C@@H](C[C@@H]2C1)N1CCCC[C@@H]1C3 (stereo partly drawn) [Compound E, (Z)-(6S,7aR,13S,14aR)-tetradecahydro-6,13-methanodipyrido[1,2-a:1′,2′-e][1,5]diazocin-2-yl 3-(3,4-dihydroxyphenyl)acrylate]	43.1 ± 1.24	> 100	42.2 ± 0.88	> 100	36.2 ± 1.98	good in vitro antitumor activities
Cc1cc(/C=C\C(=O)OC2CCN3[C@@H]4C[C@@H](C[C@@H]3C2)N2CCCC[C@@H]2C4)ccc1O (stereo partly drawn) [Compound I, (Z)-(6S,7aR,13S,14aR)-tetradecahydro-6,13-methanodipyrido[1,2-a:1′,2′-e][1,5]diazocin-2-yl 3-(4-hydroxy-3-methylphenyl)acrylate]	> 100	58.7 ± 1.78	66.9 ± 1.84	32.59 ± 0.29	> 100	good in vitro antitumor activities
COc1cc(/C=C\C(=O)OC2CCN3[C@@H]4C[C@@H](C[C@@H]3C2)N2CCCC[C@@H]2C4)ccc1O (stereo partly drawn) [Compound F, (Z)-(6S,7aR,13S,14aR)-tetradecahydro-6,13-methanodipyrido[1,2-a:1′,2′-e][1,5]diazocin-2-yl 3-(4-hydroxy-3-methoxyphenyl)acrylate]	> 100	> 100	> 100	> 100	88.6 ± 2.12	
Cc1cccc(/C=C\C(=O)OC2CCN3[C@@H]4C[C@@H](C[C@@H]3C2)N2CCCC[C@@H]2C4)c1 (stereo partly drawn) [Compound J, (Z)-(6S,7aR,13S,14aR)-tetradecahydro-6,13-methanodipyrido[1,2-a:1′,2′-e][1,5]diazocin-2-yl 3-(m-tolyl)acrylate]	65 ± 1.89	88.5 ± 1.26	74.6 ± 2.94	> 100	65.43 ± 0.47	
Cc1ccccc1/C=C\C(=O)OC1CCN2[C@@H]3C[C@@H](C[C@@H]2C1)N1CCCC[C@@H]1C3 (stereo partly drawn) [Compound K, (Z)-(6S,7aR,13S,14aR)-tetradecahydro-6,13-methanodipyrido[1,2-a:1′,2′-e][1,5]diazocin-2-yl 3-(o-tolyl)acrylate]	89.6 ± 1.34	> 100	> 100	69.81 ± 0.06	> 100	
Cc1ccc(/C=C\C(=O)OC2CCN3[C@@H]4C[C@@H](C[C@@H]3C2)N2CCCC[C@@H]2C4)cc1 (stereo partly drawn) [Compound H, (Z)-(6S,7aR,13S,14aR)-tetradecahydro-6,13-methanodipyrido[1,2-a:1′,2′-e][1,5]diazocin-2-yl 3-(p-tolyl)acrylate]	29.9 ± 1.59	51.1 ± 1.44	75.4 ± 0.897	35.7 ± 2.58	> 100	good in vitro antitumor activities
Nc1ccn([C@@H]2O[C@H](CO)[C@@H](O)[C@@H]2O)c(=O)n1 [Ara-C, cytarabine, reference compound]	19.2 ± 0.39	20.6 ± 0.54	39.2 ± 0.54	> 100	76.3 ± 2.48	
O=C(/C=C\c1ccc(Cl)cc1)OC1CCN2[C@@H]3C[C@@H](C[C@@H]2C1)N1CCCC[C@@H]1C3 (stereo partly drawn) [Compound M, (Z)-(6S,7aR,13S,14aR)-tetradecahydro-6,13-methanodipyrido[1,2-a:1′,2′-e][1,5]diazocin-2-yl 3-(4-chlorophenyl)acrylate]	> 100	26.8 ± 1.24	45.9 ± 1.82	55.54 ± 0.044	10.6 ± 1.33	good in vitro antitumor activities
